In patent US9624208B2, “Benzoxazolinone compounds with selective activity in voltage-gated sodium channels” (Merck Sharp & Dohme Corp., priority 2012, dated 2017):

How the values were obtained:
human Nav1.7 = biological target: T1, human Nav1.7 (Homo sapiens, UniProt Q15858); assay: PatchXpress sodium current measurement, inactivated state block, Nav1.7; assay type: cell-based; conditions: channels stably expressed in HEK 293 cells, double-pulse protocol, 22° C., read-out: potency for the Nav 1.7 sodium ion channel (1.7=)
T1 construct: expressed in transfected cells
Method in brief: (§1)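 HEK293 cells stably expressing channel; automated patch clamp at 22 °C, double-pulse protocol: hold 20 mV below V½ inactivation, 8000 ms prepulse 7 mV above V½, 2 ms step to −120 mV, 20 ms test pulse to −20 mV. CsF-based internal (pH 7.3), NMDG/40 mM NaCl external (pH 7.5). Rundown-corrected % inhibition (≥2 concentrations) fitted to Hill equation for IC50.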

human Nav1.5 = biological target: T2, human Nav1.5 (Homo sapiens, UniProt Q14524); assay: PatchXpress sodium current measurement, inactivated state block, Nav1.5; assay type: cell-based; conditions: determined by PatchXpress measurement, HEK 293 cells
T2 construct: expressed in transfected cells
Method in brief: as §1

T2 sequence (Q14524 whole entry): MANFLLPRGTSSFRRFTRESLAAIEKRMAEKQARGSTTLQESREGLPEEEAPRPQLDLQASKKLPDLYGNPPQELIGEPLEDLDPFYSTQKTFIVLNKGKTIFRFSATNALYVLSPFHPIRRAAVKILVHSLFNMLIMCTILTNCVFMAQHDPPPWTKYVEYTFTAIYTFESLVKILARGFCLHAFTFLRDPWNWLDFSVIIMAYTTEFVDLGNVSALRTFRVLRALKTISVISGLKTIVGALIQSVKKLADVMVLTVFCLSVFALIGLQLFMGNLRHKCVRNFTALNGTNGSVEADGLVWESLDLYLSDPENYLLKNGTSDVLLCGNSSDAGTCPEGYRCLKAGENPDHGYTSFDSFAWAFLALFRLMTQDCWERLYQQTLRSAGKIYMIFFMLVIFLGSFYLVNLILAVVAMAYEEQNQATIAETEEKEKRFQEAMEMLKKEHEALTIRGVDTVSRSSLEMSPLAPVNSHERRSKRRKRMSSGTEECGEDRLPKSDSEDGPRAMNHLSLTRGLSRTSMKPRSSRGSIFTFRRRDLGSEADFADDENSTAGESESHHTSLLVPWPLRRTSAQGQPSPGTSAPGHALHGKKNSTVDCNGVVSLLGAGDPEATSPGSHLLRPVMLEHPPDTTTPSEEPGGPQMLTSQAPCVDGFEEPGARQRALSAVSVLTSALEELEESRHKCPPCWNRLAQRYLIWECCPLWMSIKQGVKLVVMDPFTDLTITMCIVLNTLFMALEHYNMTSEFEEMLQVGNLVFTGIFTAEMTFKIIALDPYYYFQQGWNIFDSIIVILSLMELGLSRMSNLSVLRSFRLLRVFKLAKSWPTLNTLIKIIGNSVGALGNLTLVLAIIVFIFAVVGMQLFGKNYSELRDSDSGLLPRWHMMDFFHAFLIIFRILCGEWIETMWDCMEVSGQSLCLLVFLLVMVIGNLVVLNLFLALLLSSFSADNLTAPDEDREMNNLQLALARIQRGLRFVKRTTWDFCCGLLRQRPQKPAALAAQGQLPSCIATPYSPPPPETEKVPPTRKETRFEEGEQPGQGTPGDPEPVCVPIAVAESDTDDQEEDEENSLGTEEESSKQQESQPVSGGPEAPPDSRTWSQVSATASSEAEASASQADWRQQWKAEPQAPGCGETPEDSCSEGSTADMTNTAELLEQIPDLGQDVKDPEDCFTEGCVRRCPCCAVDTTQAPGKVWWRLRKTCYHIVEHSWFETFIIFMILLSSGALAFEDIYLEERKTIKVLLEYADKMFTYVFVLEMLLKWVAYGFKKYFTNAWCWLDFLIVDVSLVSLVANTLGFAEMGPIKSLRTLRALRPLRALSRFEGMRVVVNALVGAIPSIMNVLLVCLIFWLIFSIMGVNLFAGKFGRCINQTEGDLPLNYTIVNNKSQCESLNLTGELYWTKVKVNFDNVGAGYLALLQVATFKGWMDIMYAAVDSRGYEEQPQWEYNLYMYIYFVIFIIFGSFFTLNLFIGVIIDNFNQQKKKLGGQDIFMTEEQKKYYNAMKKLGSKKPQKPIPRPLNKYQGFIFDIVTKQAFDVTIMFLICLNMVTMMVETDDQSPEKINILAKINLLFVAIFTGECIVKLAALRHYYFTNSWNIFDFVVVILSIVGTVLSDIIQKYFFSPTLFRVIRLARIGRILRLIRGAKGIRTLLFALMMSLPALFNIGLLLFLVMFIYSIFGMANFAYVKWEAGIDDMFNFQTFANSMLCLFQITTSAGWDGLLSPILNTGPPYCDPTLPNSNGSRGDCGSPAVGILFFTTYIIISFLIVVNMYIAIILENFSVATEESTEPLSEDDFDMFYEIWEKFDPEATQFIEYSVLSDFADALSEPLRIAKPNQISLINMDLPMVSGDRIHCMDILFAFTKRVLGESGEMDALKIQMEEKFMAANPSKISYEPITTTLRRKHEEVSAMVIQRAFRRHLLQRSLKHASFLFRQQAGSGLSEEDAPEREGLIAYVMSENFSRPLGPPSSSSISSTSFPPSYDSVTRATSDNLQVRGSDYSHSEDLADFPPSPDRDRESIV
T1 sequence (Q15858 whole entry): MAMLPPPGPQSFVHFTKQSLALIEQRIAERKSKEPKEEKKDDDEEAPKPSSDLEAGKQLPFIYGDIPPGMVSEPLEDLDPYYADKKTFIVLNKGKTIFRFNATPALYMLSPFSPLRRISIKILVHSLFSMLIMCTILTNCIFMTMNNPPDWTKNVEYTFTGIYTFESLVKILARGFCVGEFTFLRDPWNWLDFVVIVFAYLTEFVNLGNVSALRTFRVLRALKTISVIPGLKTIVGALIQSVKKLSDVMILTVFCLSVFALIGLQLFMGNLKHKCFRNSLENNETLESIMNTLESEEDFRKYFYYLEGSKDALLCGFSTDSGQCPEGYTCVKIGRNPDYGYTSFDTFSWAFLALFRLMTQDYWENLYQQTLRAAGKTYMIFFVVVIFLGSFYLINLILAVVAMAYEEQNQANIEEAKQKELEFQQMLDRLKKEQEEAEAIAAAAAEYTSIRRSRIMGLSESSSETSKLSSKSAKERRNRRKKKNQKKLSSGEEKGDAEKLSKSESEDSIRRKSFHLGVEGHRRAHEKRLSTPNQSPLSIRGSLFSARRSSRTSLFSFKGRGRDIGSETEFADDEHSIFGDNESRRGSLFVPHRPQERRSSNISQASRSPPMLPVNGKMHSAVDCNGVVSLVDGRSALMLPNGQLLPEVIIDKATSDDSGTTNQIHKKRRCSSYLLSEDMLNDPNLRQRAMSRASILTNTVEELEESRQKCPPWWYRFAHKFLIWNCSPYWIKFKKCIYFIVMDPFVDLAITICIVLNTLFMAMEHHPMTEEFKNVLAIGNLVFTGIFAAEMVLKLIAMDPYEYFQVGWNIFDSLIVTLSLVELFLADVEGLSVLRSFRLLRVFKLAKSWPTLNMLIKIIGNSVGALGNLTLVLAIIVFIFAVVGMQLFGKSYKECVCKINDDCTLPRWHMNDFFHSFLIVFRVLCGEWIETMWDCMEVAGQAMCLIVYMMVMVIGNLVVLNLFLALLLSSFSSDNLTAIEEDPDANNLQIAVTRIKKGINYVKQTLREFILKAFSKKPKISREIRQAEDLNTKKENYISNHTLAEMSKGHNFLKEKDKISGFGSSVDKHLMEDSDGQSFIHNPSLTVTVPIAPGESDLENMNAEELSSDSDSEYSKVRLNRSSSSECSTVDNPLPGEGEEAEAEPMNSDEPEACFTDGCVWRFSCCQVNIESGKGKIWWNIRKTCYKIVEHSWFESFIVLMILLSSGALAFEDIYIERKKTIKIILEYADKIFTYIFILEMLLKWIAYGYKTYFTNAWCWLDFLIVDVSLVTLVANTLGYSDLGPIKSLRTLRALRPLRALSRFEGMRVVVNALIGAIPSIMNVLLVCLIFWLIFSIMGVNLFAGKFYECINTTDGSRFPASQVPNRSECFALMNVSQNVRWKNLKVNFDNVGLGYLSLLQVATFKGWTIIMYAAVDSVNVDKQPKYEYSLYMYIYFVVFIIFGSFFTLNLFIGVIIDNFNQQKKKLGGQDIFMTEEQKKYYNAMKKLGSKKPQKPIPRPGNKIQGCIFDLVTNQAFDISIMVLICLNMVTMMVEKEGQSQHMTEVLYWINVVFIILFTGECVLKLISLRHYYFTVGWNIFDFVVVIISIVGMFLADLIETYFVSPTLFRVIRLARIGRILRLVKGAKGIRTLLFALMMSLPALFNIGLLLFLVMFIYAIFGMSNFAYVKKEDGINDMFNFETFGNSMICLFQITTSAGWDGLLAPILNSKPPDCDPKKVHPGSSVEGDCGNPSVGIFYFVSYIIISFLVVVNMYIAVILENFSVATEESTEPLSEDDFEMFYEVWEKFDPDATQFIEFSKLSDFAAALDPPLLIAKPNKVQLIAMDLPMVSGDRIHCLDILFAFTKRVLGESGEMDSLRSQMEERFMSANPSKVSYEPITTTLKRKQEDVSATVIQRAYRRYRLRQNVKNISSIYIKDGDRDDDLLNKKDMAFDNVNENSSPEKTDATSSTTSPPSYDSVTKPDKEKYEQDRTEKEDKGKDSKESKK

C[C@H](c1cccc(C#CC2(N)CCCCC2)c1)n1c(=O)oc2cc(S(=O)(=O)Nc3cccc(F)n3)c(F)cc21 [Ex21-4, 3-[(1R)-1-{3-[(1-aminocyclohexyl)-ethynyl]phenyl}ethyl]-5-fluoro-N-(6-fluoropyridin-2-yl)-2-oxo-2,3-dihydro-1,3-benzoxazole-6-sulfonamide]
IC50 (human Nav1.7): 226 nM
ratio of Nav 1.5:Nav 1.7 potency (human Nav1.5): 45

C[C@H](c1cccc(C#CC(C)(C)N)c1)n1c(=O)oc2cc(S(=O)(=O)Nc3cccc(F)n3)c(F)cc21 [Ex21-1, 3-{(1R)-1-[3-(3-amino-3-methylbut-1-yn-1-yl)phenyl]ethyl}-5-fluoro-N-(6-fluoropyridin-2-yl)-2-oxo-2,3-dihydro-1,3-benzoxazole-6-sulfonamide]
IC50 (human Nav1.7): 229 nM
ratio of Nav 1.5:Nav 1.7 potency (human Nav1.5): 151

Cc1cc2c(cc1S(=O)(=O)Nc1cccc(F)n1)oc(=O)n2[C@H](C)c1cccc(C)c1CN [Ex19-2, 3-{(1R)-1-[2-(aminomethyl)-3-methylphenyl]ethyl}-N-(6-fluoropyridin-2-yl)-5-methyl-2-oxo-2,3-dihydro-1,3-benzoxazole-6-sulfonamide]
IC50 (human Nav1.7): 14 nM
ratio of Nav 1.5:Nav 1.7 potency (human Nav1.5): 133

C[C@H](c1cccc(C#CCN2CCN(C)CC2)c1)n1c(=O)oc2cc(S(=O)(=O)Nc3cccc(F)n3)c(F)cc21 [Ex21-14, 5-fluoro-N-(6-fluoropyridin-2-yl)-3-[(1R)-1-{3-[3-(4-methylpiperazin-1-yl)prop-1-yn-1-yl]phenyl}ethyl]-2-oxo-2,3-dihydro-1,3-benzoxazole-6-sulfonamide]
IC50 (human Nav1.7): 234 nM
ratio of Nav 1.5:Nav 1.7 potency (human Nav1.5): 134

Cc1cccc([C@@H](C)n2c(=O)oc3cc(S(=O)(=O)Nc4cccc(F)n4)c(F)cc32)c1Br [Ex14-4, 3-[(1R)-1-(2-Bromo-3-methylphenyl)ethyl]-5-fluoro-N-(6-fluoropyridin-2-yl)-2-oxo-2,3-dihydro-1,3-benzoxazole-6-sulfonamide]
IC50 (human Nav1.7): 596 nM
ratio of Nav 1.5:Nav 1.7 potency (human Nav1.5): 27

C[C@H](c1ccccc1C1CNC1)n1c(=O)oc2cc(S(=O)(=O)Nc3ccc(F)cn3)c(F)cc21 [Ex15-6, 3-[(1R)-1-(2-azetidin-3-ylphenyl)ethyl]-5-fluoro-N-(5-fluoropyridin-2-yl)-2-oxo-2,3-dihydro-1,3-benzoxazole-6-sulfonamide]
IC50 (human Nav1.7): 145 nM
ratio of Nav 1.5:Nav 1.7 potency (human Nav1.5): 207

C[C@H](c1cccc(C#CCN2CCNCC2)c1)n1c(=O)oc2cc(S(=O)(=O)Nc3cccc(F)n3)c(F)cc21 [Ex21-11, 5-fluoro-N-(6-fluoropyridin-2-yl)-2-oxo-3-[(1R)-1-{3-[3-(piperazin-1-yl)prop-1-yn-1-yl]phenyl}ethyl]-2,3-dihydro-1,3-benzoxazole-6-sulfonamide]
IC50 (human Nav1.7): 189 nM
ratio of Nav 1.5:Nav 1.7 potency (human Nav1.5): 137

Cc1c(CCCN)cccc1[C@@H](C)n1c(=O)oc2cc(S(=O)(=O)Nc3cccc(F)n3)c(F)cc21 [Ex22-3, 3-{(1R)-1-[3-(3-amino-propyl)-2-methylphenyl]ethyl}-5-fluoro-N-(6-fluoropyridin-2-yl)-2-oxo-2,3-dihydro-1,3-benzoxazole-6-sulfonamide]
IC50 (human Nav1.7): 101 nM
ratio of Nav 1.5:Nav 1.7 potency (human Nav1.5): 297

C[C@H](c1ccccc1C#CCC(C)(C)N)n1c(=O)oc2cc(S(=O)(=O)Nc3cccc(F)n3)c(F)cc21 [Ex8-7, 3-{(1R)-1-[2-(4-amino-4-methylpent-1-yn-1-yl)phenyl]ethyl}-5-fluoro-N-(6-fluoropyridin-2-yl)-2-oxo-2,3-dihydro-1,3-benzoxazole-6-sulfonamide]
IC50 (human Nav1.7): 108 nM
ratio of Nav 1.5:Nav 1.7 potency (human Nav1.5): > 131

Cc1cc2c(cc1S(=O)(=O)Nc1cccc(F)n1)oc(=O)n2[C@H](C)c1ccccc1N1CCNCC1 [Ex23-2, N-(6-fluoropyridin-2-yl)-5-methyl-2-oxo-3-{(1R)-1-[2-(piperazin-1-yl)phenyl]ethyl}-2,3-dihydro-1,3-benzoxazole-6-sulfonamide]
IC50 (human Nav1.7): 74 nM
ratio of Nav 1.5:Nav 1.7 potency (human Nav1.5): 405
